Data reported in ChEMBL document CHEMBL1135504, “Structure-activity relationships of the melanocortin tetrapeptide Ac-His-DPhe-Arg-Trp-NH(2) at the mouse melanocortin receptors: part 2 modifications at the Phe position” (J Med Chem, 2002).
Where a SMILES comes first, the peptide text is derived from it.

Tests used:
Melanocortin receptor 3 [1] = biological target: T1, Melanocortin receptor 3 (Mus musculus, UniProt P33033); assay: Agonist activity to the mouse Melanocortin-3 receptor (mMC3R); assay type: functional
Melanocortin receptor 4 = Melanocortin receptor 4 (Mus musculus, UniProt P56450); assay: Agonist activity to the mouse Melanocortin-4 receptor (mMC4R); assay type: functional
[2] = biological target: Melanocyte-stimulating hormone receptor (Mus musculus, UniProt Q01727); assay: Agonist activity to the mouse Melanocortin-1 receptor (mMC1R); assay type: functional
Melanocortin receptor 5 = Melanocortin receptor 5 (Mus musculus, UniProt P41149); assay: Agonist activity towards mouse Melanocortin-5 receptor (mMC5R); assay type: functional
Melanocortin receptor 3 [3] = biological target: T1, Melanocortin receptor 3; assay: Agonist activity of compound towards mouse Melanocortin-3 receptor (mMC3R); partial agonist; assay type: functional; conditions: read-out: pA2 (converted)
Melanocortin receptor 3 [4] = biological target: T1, Melanocortin receptor 3; assay: Binding constant (Ki) at mouse Melanocortin-3 receptor

Melanocortin receptor 4, sequence (P56450 whole entry): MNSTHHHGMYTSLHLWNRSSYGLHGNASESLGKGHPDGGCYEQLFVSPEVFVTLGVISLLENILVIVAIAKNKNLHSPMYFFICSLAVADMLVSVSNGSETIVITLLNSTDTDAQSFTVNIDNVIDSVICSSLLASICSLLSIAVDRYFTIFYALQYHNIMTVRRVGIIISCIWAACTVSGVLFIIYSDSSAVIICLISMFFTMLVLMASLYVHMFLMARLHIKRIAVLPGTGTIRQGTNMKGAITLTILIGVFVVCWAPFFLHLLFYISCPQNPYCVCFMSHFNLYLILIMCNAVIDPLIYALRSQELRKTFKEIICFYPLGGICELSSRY
Melanocortin receptor 5, sequence (P41149 whole entry): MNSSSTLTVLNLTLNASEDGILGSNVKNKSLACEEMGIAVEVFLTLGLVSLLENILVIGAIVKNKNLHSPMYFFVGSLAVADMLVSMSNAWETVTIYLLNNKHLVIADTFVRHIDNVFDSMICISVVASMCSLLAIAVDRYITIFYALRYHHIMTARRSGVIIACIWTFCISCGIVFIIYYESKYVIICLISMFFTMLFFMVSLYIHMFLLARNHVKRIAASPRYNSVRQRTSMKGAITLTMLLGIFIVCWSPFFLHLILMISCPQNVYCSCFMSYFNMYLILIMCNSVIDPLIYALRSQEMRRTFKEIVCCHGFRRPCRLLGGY
T1 sequence (P33033 whole entry): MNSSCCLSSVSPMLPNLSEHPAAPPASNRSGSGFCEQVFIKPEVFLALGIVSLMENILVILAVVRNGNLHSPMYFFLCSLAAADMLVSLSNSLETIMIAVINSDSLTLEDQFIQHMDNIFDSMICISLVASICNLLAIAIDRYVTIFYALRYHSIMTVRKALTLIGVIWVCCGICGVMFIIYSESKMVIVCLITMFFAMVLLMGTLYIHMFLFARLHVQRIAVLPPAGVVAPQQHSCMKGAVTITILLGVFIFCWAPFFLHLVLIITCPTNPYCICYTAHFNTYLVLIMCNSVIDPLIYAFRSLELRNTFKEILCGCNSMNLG
Melanocyte-stimulating hormone receptor, sequence (Q01727 whole entry): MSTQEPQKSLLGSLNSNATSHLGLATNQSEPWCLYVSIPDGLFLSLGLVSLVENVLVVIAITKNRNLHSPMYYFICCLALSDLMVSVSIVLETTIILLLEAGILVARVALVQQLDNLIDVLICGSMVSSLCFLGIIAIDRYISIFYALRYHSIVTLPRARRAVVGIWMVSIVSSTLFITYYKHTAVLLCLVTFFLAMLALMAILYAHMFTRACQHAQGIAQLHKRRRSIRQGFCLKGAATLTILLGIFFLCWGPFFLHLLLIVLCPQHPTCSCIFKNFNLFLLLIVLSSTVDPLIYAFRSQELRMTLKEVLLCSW

| Structure (SMILES) | EC50 (Melanocortin receptor 3 [1]) [µM] | EC50 (Melanocortin receptor 4) [µM] | EC50 [2] [µM] | EC50 (Melanocortin receptor 5) [µM] | Kb (Melanocortin receptor 3 [3]) [µM] | Ki (Melanocortin receptor 3 [4]) [µM] |
| --- | --- | --- | --- | --- | --- | --- |
| CC(=O)N[C@@H](Cc1cnc[nH]1)C(=O)N[C@@H](Cc1ccc(O)cc1)C(=O)N[C@@H](CCCNC(=N)N)C(=O)N[C@@H](Cc1c[nH]c2ccccc12)C(N)=O (Ac-HYRW-NH2) | > 100 | > 100 | 61.4 | 32.7 | – | – |
| CC(=O)N[C@@H](Cc1cnc[nH]1)C(=O)N[C@H](Cc1cccc2ccccc12)C(=O)N[C@@H](CCCNC(=N)N)C(=O)N[C@@H](Cc1c[nH]c2ccccc12)C(N)=O | 4.1 | 0.303 | 0.356 | 0.0514 | – | – |
| CC(=O)N[C@@H](Cc1c[nH]cn1)C(=O)N1Cc2ccccc2C[C@H]1C(=O)N[C@@H](CCCN=C(N)N)C(=O)N[C@@H](Cc1c[nH]c2ccccc12)C(N)=O | > 100 | > 100 | 53.6 | 21.3 | – | – |
| CC(=O)N[C@@H](Cc1c[nH]cn1)C(=O)N[C@H](Cc1ccc(-c2ccccc2)cc1)C(=O)N[C@@H](CCCN=C(N)N)C(=O)N[C@@H](Cc1c[nH]c2ccccc12)C(N)=O | 2.05 | 0.0684 | 0.0284 | 0.0116 | – | – |
| CC(=O)N[C@@H](Cc1c[nH]cn1)C(=O)N[C@H](Cc1c[nH]c2ccccc12)C(=O)N[C@@H](CCCN=C(N)N)C(=O)N[C@@H](Cc1c[nH]c2ccccc12)C(N)=O | > 100 | > 100 | 25.1 | 6.95 | – | – |
| CC(=O)N[C@@H](Cc1c[nH]cn1)C(=O)N1Cc2ccccc2C[C@@H]1C(=O)N[C@@H](CCCN=C(N)N)C(=O)N[C@@H](Cc1c[nH]c2ccccc12)C(N)=O | > 100 | > 100 | 40.8 | > 100 | – | – |
| CC(=O)N[C@@H](Cc1c[nH]cn1)C(=O)NC1(C(=O)N[C@@H](CCCN=C(N)N)C(=O)N[C@@H](Cc2c[nH]c3ccccc23)C(N)=O)CCc2ccccc2C1 (stereo in doubt; 26) | 7.8 | 7.13 | 5.8 | 2.07 | – | – |
| CC(=O)N[C@@H](Cc1c[nH]cn1)C(=O)N[C@@H](Cc1ccc2ccccc2c1)C(=O)N[C@@H](CCCN=C(N)N)C(=O)N[C@@H](Cc1c[nH]c2ccccc12)C(N)=O | > 100 | – | 22 | 7.4 | – | – |
| CC(=O)N[C@@H](Cc1cnc[nH]1)C(=O)N[C@H](Cc1ccc(O)cc1)C(=O)N[C@@H](CCCNC(=N)N)C(=O)N[C@@H](Cc1c[nH]c2ccccc12)C(N)=O | 34 | 2.4 | 3.2 | 0.631 | – | – |
| CC(=O)N[C@@H](Cc1cnc[nH]1)C(=O)N[C@H](C(=O)N[C@@H](CCCNC(=N)N)C(=O)N[C@@H](Cc1c[nH]c2ccccc12)C(N)=O)c1ccccc1 | 44 | 40.5 | 14.7 | 4 | – | – |
| CC(=O)N[C@@H](Cc1cnc[nH]1)C(=O)N[C@H](Cc1ccc2ccccc2c1)C(=O)N[C@@H](CCCNC(=N)N)C(=O)N[C@@H](Cc1c[nH]c2ccccc12)C(N)=O | – | – | 0.167 | 0.0347 | 0.295 | 0.295 |
| CC(=O)N[C@@H](Cc1c[nH]cn1)C(=O)N[C@@H](C(=O)N[C@@H](CCCN=C(N)N)C(=O)N[C@@H](Cc1c[nH]c2ccccc12)C(N)=O)c1ccccc1 | > 100 | > 100 | 16.9 | – | – | – |
| CC(=O)N[C@@H](Cc1cnc[nH]1)C(=O)N[C@@H](Cc1cccc2ccccc12)C(=O)N[C@@H](CCCNC(=N)N)C(=O)N[C@@H](Cc1c[nH]c2ccccc12)C(N)=O | > 100 | > 100 | 15.2 | 11.2 | – | – |
| CC(=O)N[C@@H](Cc1cnc[nH]1)C(=O)N[C@H](C(=O)N[C@@H](CCCNC(=N)N)C(=O)N[C@@H](Cc1c[nH]c2ccccc12)C(N)=O)C(c1ccccc1)c1ccccc1 | > 100 | > 100 | 19 | > 100 | – | – |
| CC(=O)N[C@@H](Cc1c[nH]cn1)C(=O)N[C@@H](C(=O)N[C@@H](CCCN=C(N)N)C(=O)N[C@@H](Cc1c[nH]c2ccccc12)C(N)=O)C(c1ccccc1)c1ccccc1 | > 100 | 5 | 1.5 | 4.3 | – | – |
| CC(=O)N[C@@H](Cc1cnc[nH]1)C(=O)N[C@@H](Cc1cccnc1)C(=O)N[C@@H](CCCNC(=N)N)C(=O)N[C@@H](Cc1c[nH]c2ccccc12)C(N)=O | > 100 | > 100 | 22.9 | 36.1 | – | – |
| CC(=O)N[C@@H](Cc1cnc[nH]1)C(=O)N[C@@H](Cc1c[nH]c2ccccc12)C(=O)N[C@@H](CCCNC(=N)N)C(=O)N[C@@H](Cc1c[nH]c2ccccc12)C(N)=O | > 100 | 34.3 | 33.4 | 18.4 | – | – |
| CC(=O)N[C@@H](Cc1cnc[nH]1)C(=O)N[C@@H](Cc1ccc(-c2ccccc2)cc1)C(=O)N[C@@H](CCCNC(=N)N)C(=O)N[C@@H](Cc1c[nH]c2ccccc12)C(N)=O | > 100 | – | 10.6 | 5.5 | – | – |
| CC(=O)N[C@@H](Cc1cnc[nH]1)C(=O)N[C@@H](C)C(=O)N[C@@H](CCCNC(=N)N)C(=O)N[C@@H](Cc1c[nH]c2ccccc12)C(N)=O (Ac-HARW-NH2) | > 100 | > 100 | 30 | > 100 | – | – |
| CC(=O)N[C@@H](Cc1cnc[nH]1)C(=O)N[C@@H](Cc1ccncc1)C(=O)N[C@@H](CCCNC(=N)N)C(=O)N[C@@H](Cc1c[nH]c2ccccc12)C(N)=O | > 100 | 24.4 | 36.7 | 9.7 | – | – |
| CC(=O)N[C@@H](Cc1c[nH]cn1)C(=O)N[C@@H](CCc1ccccc1)C(=O)N[C@@H](CCCN=C(N)N)C(=O)N[C@@H](Cc1c[nH]c2ccccc12)C(N)=O | > 100 | > 100 | 33.1 | 11.8 | – | – |
| CC(=O)N[C@@H](Cc1c[nH]cn1)C(=O)NC1(C(=O)N[C@@H](CCCN=C(N)N)C(=O)N[C@@H](Cc2c[nH]c3ccccc23)C(N)=O)CCc2ccccc2C1 (stereo in doubt; 25) | 9.9 | 1.78 | 2.35 | 0.263 | – | – |
| CC(=O)N[C@@H](Cc1c[nH]cn1)C(=O)N[C@@H](Cc1ccccc1)C(=O)N[C@@H](CCCN=C(N)N)C(=O)N[C@@H](Cc1c[nH]c2ccccc12)C(N)=O | – | 0.00211 | – | – | – | – |
| CC(=O)N[C@@H](Cc1c[nH]cn1)C(=O)N[C@@H](Cc1c[nH]cn1)C(=O)N[C@@H](CCCN=C(N)N)C(=O)N[C@@H](Cc1c[nH]c2ccccc12)C(N)=O (Ac-HHRW-NH2) | > 100 | > 100 | 41.7 | 41.2 | – | – |
| CC(=O)N[C@@H](Cc1cnc[nH]1)C(=O)N[C@H](CCc1ccccc1)C(=O)N[C@@H](CCCNC(=N)N)C(=O)N[C@@H](Cc1c[nH]c2ccccc12)C(N)=O | > 100 | 11.1 | 6.25 | 2.8 | – | – |
